Results as given in US20090325986A1, “Deazapurine Analogs of 1'-Aza-L-Nucleosides” (priority 2005, published 2009).

Tests used:
Test in all cases: biochemical
[1] = biological target: bovine PNPase (Bos taurus, UniProt P55859); details: for Ki: B. taurus PNPase
Text: (§1) The inhibition constants KI are the dissociation constants for the enzyme-inhibitor complex measured from initial reaction rates. For many, but not all, immucillin inhibitors, a slow-onset of inhibition then occurs consequent upon a time dependent conformational change in the enzyme that leads to tighter binding characterised by the constant KI* (J. F. Morrison and C. T. Walsh, Adv, Enzymol. Relat. Areas Mol. Biol., 1988, 61, 201-310).

[2] = biological target: plasmodial PNPase (Plasmodium falciparum, UniProt Q8I3X4)
plasmodial PNPase, sequence (Q8I3X4 whole entry): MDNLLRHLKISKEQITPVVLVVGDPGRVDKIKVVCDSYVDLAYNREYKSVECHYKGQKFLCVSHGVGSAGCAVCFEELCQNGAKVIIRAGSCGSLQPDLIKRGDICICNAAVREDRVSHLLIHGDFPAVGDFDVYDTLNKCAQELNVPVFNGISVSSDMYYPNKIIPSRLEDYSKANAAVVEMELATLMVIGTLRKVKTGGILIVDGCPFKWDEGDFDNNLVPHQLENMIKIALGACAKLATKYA
Text: as §1

[3] = biological target: human PNPase (Homo sapiens, UniProt P00491); details: for Ki: H. sapiens PNPase
human PNPase, sequence (P00491 whole entry): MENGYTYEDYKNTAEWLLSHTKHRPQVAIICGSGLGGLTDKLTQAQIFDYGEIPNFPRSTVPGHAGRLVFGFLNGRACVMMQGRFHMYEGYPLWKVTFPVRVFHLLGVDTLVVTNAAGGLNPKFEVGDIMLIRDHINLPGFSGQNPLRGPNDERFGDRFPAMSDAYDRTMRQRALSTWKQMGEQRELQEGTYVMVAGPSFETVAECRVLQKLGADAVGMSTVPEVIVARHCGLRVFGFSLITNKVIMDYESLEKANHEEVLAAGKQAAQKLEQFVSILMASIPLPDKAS
Text: as §1

[4] = Ki*, tighter binding after slow-onset inhibition
[5] = Ki, dissociation constant of enzyme-inhibitor complex from initial reaction rates
[6] = Ki, Plasmodium falciparum PNPase, dissociation constant of enzyme-inhibitor complex from initial reaction rates

bovine PNPase, sequence (P55859 whole entry): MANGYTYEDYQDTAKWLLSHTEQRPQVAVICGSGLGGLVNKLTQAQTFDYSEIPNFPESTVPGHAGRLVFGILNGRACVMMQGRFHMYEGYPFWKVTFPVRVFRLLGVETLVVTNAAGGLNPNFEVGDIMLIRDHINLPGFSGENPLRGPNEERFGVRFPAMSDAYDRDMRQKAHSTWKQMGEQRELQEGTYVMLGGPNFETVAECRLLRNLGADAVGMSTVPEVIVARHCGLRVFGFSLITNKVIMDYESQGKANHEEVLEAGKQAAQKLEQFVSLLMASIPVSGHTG

O=c1[nH]cnc2c(CN3C[C@H](CO)[C@@H](O)C3)c[nH]c12 [[(+)-10], reference compound] gave a Ki [1, 4] of 0.11 ± 0.014 nM, a Ki [1, 5] of 2.1 ± 0.3 nM and a Ki [2, 6] of 0.5 ± 0.04 nM. For the same molecule, the “Ki*” value ([2]; Plasmodium falciparum PNPase, tighter binding after slow-onset inhibition) was “Not observed”.
With O=c1[nH]cnc2c(CN3C[C@@H](CO)[C@H](O)C3)c[nH]c12 [[(−)-10], (3S,4S)-1-[(9-Deazahypoxanthin-9-yl)methyl]-4-(hydroxymethyl)pyrrolidin-3-ol] the Ki [1, 4] was 0.5 ± 0.1 nM, the Ki [1, 5] was 19 ± 5 nM and the type of inhibition ([1]; bovine PNP) was “slow onset tight binding inhibitor”. The Ki ([2]; Ki*, Plasmodium falciparum PNPase, tighter binding after slow-onset inhibition) was 80 ± 7 nM, the Ki [2, 6] was 1700 ± 300 nM and the type of inhibition ([2]; Plasmodium falciparum PNP) was “slow onset tight binding inhibitor”. The Ki [3, 4] was 0.68 ± 0.26 nM, the Ki [3, 5] was 1.5 ± 0.1 nM and the type of inhibition ([3]; human PNP) was “slow onset tight binding inhibitor”.
